{"source": "paper PMC8703531", "about": "“Structure of ABCB1/P-Glycoprotein in the Presence of the CFTR Potentiator Ivacaftor” (Membranes, 2021)", "biological_target": "T1, murine P-glycoprotein (P-gp, ABCB1; abcb1a, mdr3) (Mus musculus, UniProt P21447)", "T1 construct": "opti-mdr3 gene product expressed in P. pastoris, purified in DDM", "T1 sequence (P21447 whole entry)": "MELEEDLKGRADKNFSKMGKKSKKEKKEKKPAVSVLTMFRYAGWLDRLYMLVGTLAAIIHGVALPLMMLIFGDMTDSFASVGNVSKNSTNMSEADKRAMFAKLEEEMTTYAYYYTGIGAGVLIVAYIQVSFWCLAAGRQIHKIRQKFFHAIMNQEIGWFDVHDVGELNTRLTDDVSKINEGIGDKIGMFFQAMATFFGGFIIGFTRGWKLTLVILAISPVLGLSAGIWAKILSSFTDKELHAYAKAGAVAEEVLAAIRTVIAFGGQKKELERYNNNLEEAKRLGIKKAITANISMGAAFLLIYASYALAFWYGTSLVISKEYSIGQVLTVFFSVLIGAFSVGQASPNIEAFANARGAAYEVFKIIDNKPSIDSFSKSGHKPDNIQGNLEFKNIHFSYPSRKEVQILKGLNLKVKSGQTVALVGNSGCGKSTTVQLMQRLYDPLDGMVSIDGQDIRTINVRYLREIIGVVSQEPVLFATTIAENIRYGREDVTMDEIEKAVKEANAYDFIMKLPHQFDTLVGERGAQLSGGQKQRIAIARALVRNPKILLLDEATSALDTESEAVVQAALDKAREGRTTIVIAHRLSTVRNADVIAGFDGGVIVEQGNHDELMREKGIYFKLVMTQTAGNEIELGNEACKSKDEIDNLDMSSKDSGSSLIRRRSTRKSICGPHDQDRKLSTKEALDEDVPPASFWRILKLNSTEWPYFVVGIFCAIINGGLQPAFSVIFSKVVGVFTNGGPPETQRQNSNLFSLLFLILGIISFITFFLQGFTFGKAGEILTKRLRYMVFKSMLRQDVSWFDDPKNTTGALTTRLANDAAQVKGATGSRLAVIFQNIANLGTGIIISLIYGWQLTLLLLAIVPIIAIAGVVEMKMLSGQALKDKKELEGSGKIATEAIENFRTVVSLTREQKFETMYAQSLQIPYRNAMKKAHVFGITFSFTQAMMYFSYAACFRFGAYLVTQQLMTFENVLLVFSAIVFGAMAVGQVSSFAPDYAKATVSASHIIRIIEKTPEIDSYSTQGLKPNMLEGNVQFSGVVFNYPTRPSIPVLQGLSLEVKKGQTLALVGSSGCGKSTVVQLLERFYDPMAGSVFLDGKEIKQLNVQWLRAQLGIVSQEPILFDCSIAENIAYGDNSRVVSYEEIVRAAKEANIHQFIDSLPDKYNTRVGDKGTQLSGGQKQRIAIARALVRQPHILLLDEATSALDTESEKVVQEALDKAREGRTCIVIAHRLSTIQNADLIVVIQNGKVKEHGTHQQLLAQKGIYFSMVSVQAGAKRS", "assay": "thermostability shift of purified protein (static light scattering, tryptophan fluorescence, CPM dye) giving KD; cryo-EM with additional density (map a)", "type": "binding", "data": [{"smiles": "CC(C)(C)c1cc(C(C)(C)C)c(NC(=O)c2c[nH]c3ccccc3c2=O)cc1O", "note": "[ivacaftor]", "values": [{"measurement": "Kd", "result": 200, "unit": "nM"}]}]}
